Earlier results, collected in patent US20200061053A1, “PHARMACEUTICAL COMPOSITION AND METHOD FOR ACUTE ON CHRONIC LIVER FAILURE AND RELATED LIVER DISEASES” (priority 2018, published 2020).

Tests used:
[1] = tested on: liver failure patients
[2] = tested on: liver; details: in vivo
[3] = laboratory test indicators, liver failure patients, TMZ 20 mg three times a day

## COc1ccc(CN2CCNCC2)c(OC)c1OC.Cl.Cl [TMZ, 1-[2,3,4-trimethoxybenzyl] piperazine dihydrochloride]
[1]; TMZ tablets 20 mg orally, three times a day, 4-week course, hospitalized liver failure patients, traditional therapeutic approach 44%
  30-day immortality rate of liver failure patients: approximately 18%
[1]; TMZ tablets 20 mg orally, three times a day, 4-week course, hospitalized liver failure patients, traditional therapeutic approach 68%
  90-day immortality rate of liver failure patients: 35%
[1]; [3]
  decrease rate of alanine aminotransferase: significantly raise the decrease rate
  decrease rate of aspartate transaminase: significantly raise the decrease rate
[1]; patients suffering from liver diseases and conditions, clinical research and trial results
  maintaining liver functions and decreasing transaminase levels (alanine aminotransferase, aspartate transaminase): significant effects in maintaining liver functions and decreasing transaminase levels
[2]
  liver toxicity: minimal liver toxicity
